Measured values reported in PubChem BioAssay (NCI).
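96-well plates; 48 h exposure; 5 concentrations. Endpoints by linear interpolation between flanking doses. Not reached: highest tested concentration assigned. GI50: concentration for 50% inhibition of growth. The concentration for full growth arrest is given as TGI.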

Assays:
Experiment in all cases: DTP human tumour cell line panel, 48 h
CCRF-CEM leukemia = test system: CCRF-CEM leukemia
IGROV1 ovarian = test system: IGROV1 ovarian
SR leukemia = test system: SR leukemia
LOX IMVI melanoma = test system: LOX IMVI melanoma
PC-3 prostate = test system: PC-3 prostate
CAKI-1 renal = test system: CAKI-1 renal
HCC-2998 colon = test system: HCC-2998 colon
NCI-H522 lung = test system: NCI-H522 lung
UACC-257 melanoma = test system: UACC-257 melanoma
NCI-H460 lung = test system: NCI-H460 lung
ACHN renal = test system: ACHN renal
HCT-116 colon = test system: HCT-116 colon
EKVX NSCLC = test system: EKVX NSCLC
A549 NSCLC = test system: A549 NSCLC
OVCAR-5 ovarian = test system: OVCAR-5 ovarian
SN12C renal = test system: SN12C renal
COLO 205 colon = test system: COLO 205 colon
786-0 renal = test system: 786-0 renal
HT29 colon = test system: HT29 colon
DU-145 prostate = test system: DU-145 prostate
T-47D breast = test system: T-47D breast
HL-60(TB) leukemia = test system: HL-60(TB) leukemia
M14 melanoma = test system: M14 melanoma
BT-549 breast = test system: BT-549 breast
SF-268 CNS = test system: SF-268 CNS
K-562 leukemia = test system: K-562 leukemia
SF-539 CNS = test system: SF-539 CNS
SNB-19 CNS = test system: SNB-19 CNS
SW-620 colon = test system: SW-620 colon
MCF7 breast = test system: MCF7 breast
OVCAR-4 ovarian = test system: OVCAR-4 ovarian
SK-MEL-2 melanoma = test system: SK-MEL-2 melanoma
KM12 colon = test system: KM12 colon
UACC-62 melanoma = test system: UACC-62 melanoma
HS 578T breast = test system: HS 578T breast
NCI-H226 lung = test system: NCI-H226 lung
MALME-3M melanoma = test system: MALME-3M melanoma
SK-OV-3 ovarian = test system: SK-OV-3 ovarian
UO-31 renal = test system: UO-31 renal
MDA-MB-231 breast = test system: MDA-MB-231 breast
U251 CNS = test system: U251 CNS
OVCAR-8 ovarian = test system: OVCAR-8 ovarian
MOLT-4 leukemia = test system: MOLT-4 leukemia
TK-10 renal = test system: TK-10 renal
SF-295 CNS = test system: SF-295 CNS
RXF 393 renal = test system: RXF 393 renal
HOP-62 NSCLC = test system: HOP-62 NSCLC
SK-MEL-28 melanoma = test system: SK-MEL-28 melanoma
HCT-15 colon = test system: HCT-15 colon
SNB-75 CNS = test system: SNB-75 CNS
HOP-92 NSCLC = test system: HOP-92 NSCLC
MDA-MB-435 = test system: MDA-MB-435
RPMI-8226 leukemia = test system: RPMI-8226 leukemia
A498 renal = test system: A498 renal
SK-MEL-5 melanoma = test system: SK-MEL-5 melanoma
NCI/ADR-RES ovarian = test system: NCI/ADR-RES ovarian
NCI-H23 lung = test system: NCI-H23 lung

CC[C@]12C=CCN3CC[C@]4(C(=C(C(=O)OC)C1)Nc1cc5c(cc14)[C@@H]1[C@H](O5)[C@@H](O)[C@@]4(CC)CC(C(=O)OC)=C5Nc6cc(OC)ccc6[C@@]56CCN1[C@@H]46)[C@@H]32
GI50 (CCRF-CEM leukemia): 161 nM | TGI (CCRF-CEM leukemia): > 50000 nM | GI50 (IGROV1 ovarian): 152 nM | TGI (IGROV1 ovarian): 2010 nM | GI50 (SR leukemia): 137 nM | TGI (SR leukemia): 2820 nM | GI50 (LOX IMVI melanoma): 29.6 nM | TGI (LOX IMVI melanoma): 105 nM | GI50 (PC-3 prostate): 225 nM | TGI (PC-3 prostate): 5140 nM | GI50 (CAKI-1 renal): 87.7 nM | TGI (CAKI-1 renal): 2130 nM | GI50 (HCC-2998 colon): 130 nM | TGI (HCC-2998 colon): 557 nM | GI50 (NCI-H522 lung): 109 nM | TGI (NCI-H522 lung): 349 nM | GI50 (UACC-257 melanoma): 183 nM | TGI (UACC-257 melanoma): 3720 nM | GI50 (NCI-H460 lung): 407 nM | TGI (NCI-H460 lung): 5550 nM | GI50 (ACHN renal): 174 nM | TGI (ACHN renal): 690 nM | GI50 (HCT-116 colon): 102 nM | TGI (HCT-116 colon): 352 nM | GI50 (EKVX NSCLC): 253 nM | TGI (EKVX NSCLC): 12300 nM | GI50 (A549 NSCLC): 368 nM | TGI (A549 NSCLC): 6940 nM | GI50 (OVCAR-5 ovarian): 294 nM | TGI (OVCAR-5 ovarian): 5340 nM | GI50 (SN12C renal): 236 nM | TGI (SN12C renal): 5960 nM | GI50 (COLO 205 colon): 108 nM | TGI (COLO 205 colon): 437 nM | GI50 (786-0 renal): 92.9 nM | TGI (786-0 renal): 1070 nM | GI50 (HT29 colon): 161 nM | TGI (HT29 colon): 1810 nM | GI50 (DU-145 prostate): 591 nM | TGI (DU-145 prostate): > 20400 nM | GI50 (T-47D breast): 155 nM | TGI (T-47D breast): 1330 nM | GI50 (HL-60(TB) leukemia): 58.3 nM | GI50 (M14 melanoma): 163 nM | TGI (M14 melanoma): 3140 nM | GI50 (BT-549 breast): 230 nM | TGI (BT-549 breast): 2220 nM | GI50 (SF-268 CNS): 343 nM | TGI (SF-268 CNS): 11700 nM | GI50 (K-562 leukemia): 117 nM | TGI (K-562 leukemia): > 50000 nM | GI50 (SF-539 CNS): 147 nM | TGI (SF-539 CNS): 1330 nM | GI50 (SNB-19 CNS): 300 nM | TGI (SNB-19 CNS): 14900 nM | GI50 (SW-620 colon): 177 nM | TGI (SW-620 colon): 1260 nM | GI50 (MCF7 breast): 121 nM | TGI (MCF7 breast): > 16500 nM | GI50 (OVCAR-4 ovarian): 181 nM | TGI (OVCAR-4 ovarian): > 50000 nM | GI50 (SK-MEL-2 melanoma): 229 nM | TGI (SK-MEL-2 melanoma): 2930 nM | GI50 (KM12 colon): 231 nM | TGI (KM12 colon): 3230 nM | GI50 (UACC-62 melanoma): 103 nM | TGI (UACC-62 melanoma): 1630 nM | GI50 (HS 578T breast): 211 nM | TGI (HS 578T breast): > 50000 nM | GI50 (NCI-H226 lung): 160 nM | TGI (NCI-H226 lung): 4300 nM | GI50 (MALME-3M melanoma): 187 nM | TGI (MALME-3M melanoma): 3800 nM | GI50 (SK-OV-3 ovarian): 167 nM | TGI (SK-OV-3 ovarian): 706 nM | GI50 (UO-31 renal): 131 nM | TGI (UO-31 renal): 2180 nM | GI50 (MDA-MB-231 breast): 163 nM | TGI (MDA-MB-231 breast): > 11400 nM | GI50 (U251 CNS): 174 nM | TGI (U251 CNS): 877 nM | GI50 (OVCAR-8 ovarian): 199 nM | TGI (OVCAR-8 ovarian): 2470 nM | GI50 (MOLT-4 leukemia): 190 nM | TGI (MOLT-4 leukemia): > 50000 nM | GI50 (TK-10 renal): 128 nM | TGI (TK-10 renal): 1050 nM | GI50 (SF-295 CNS): 250 nM | TGI (SF-295 CNS): 13800 nM | GI50 (RXF 393 renal): 150 nM | TGI (RXF 393 renal): 613 nM | GI50 (HOP-62 NSCLC): 189 nM | TGI (HOP-62 NSCLC): 3120 nM | GI50 (SK-MEL-28 melanoma): 457 nM | TGI (SK-MEL-28 melanoma): 3260 nM | GI50 (HCT-15 colon): 137 nM | TGI (HCT-15 colon): 511 nM | GI50 (SNB-75 CNS): 345 nM | TGI (SNB-75 CNS): 4440 nM | GI50 (HOP-92 NSCLC): 70.9 nM | TGI (HOP-92 NSCLC): 4050 nM | GI50 (MDA-MB-435): 173 nM | TGI (MDA-MB-435): 1460 nM | GI50 (RPMI-8226 leukemia): 133 nM | TGI (RPMI-8226 leukemia): 576 nM | GI50 (A498 renal): 98 nM | TGI (A498 renal): 299 nM | GI50 (SK-MEL-5 melanoma): 227 nM | TGI (SK-MEL-5 melanoma): 2980 nM | GI50 (NCI/ADR-RES ovarian): 388 nM | TGI (NCI/ADR-RES ovarian): > 50000 nM | GI50 (NCI-H23 lung): 171 nM | TGI (NCI-H23 lung): 805 nM
